Test results as given in patent EP1136503A1, “NOVEL PHYSIOLOGICALLY ACTIVE SUBSTANCE, PROCESS FOR PRODUCING THE SAME AND UTILIZATION THEREOF” (Takeda Chemical Industries, Ltd., priority 1998, dated 2001).
Blank lines part the entries; values can stand above or below the substance they belong to. Where no end group is shown, it is not given here.

What was measured:
[1] = target: rat SENR (sensory epithelium neuropeptide-like receptor) (rat); assay: cell-based or functional assay
[2] = tested on: rat SENR; assay: cAMP synthesis suppression in rat SENR-expression CHO cells; type: cell-based; details: forskolin
Procedure: A method for the cAMP synthesis suppressing activity of the bovine SENR ligand (SEQ ID NO:21) synthesized in EXAMPLE 14 on rat SENR-expression CHO cells is shown below. The CHO/SENR cells were inoculated on a 24-well plate in 5 × 10^4 cells/well followed by cultivation for 48 hours. The cells were then washed with Hanks' buffer (pH 7.4) containing 0.2 mM 3-isobutyl-methylxanthine, 0.05% BSA and 20 mM HEPES (hereinafter Hanks' buffer (pH 7.4) containing 0.2 mM 3-isobutyl-methylxanthine, 0.05% BSA and 20 mM HEPES is referred to as a reaction buffer). Thereafter, 0.5 ml of the reaction buffer was added to the system, which was kept in the medium for 30 minutes. The reaction buffer was removed and 0.25 ml of a fresh reaction buffer was added to the cells. Then, 0.25 ml of the reaction buffer containing various amounts of bovine SENR ligand and 2 µM forskolin was added to the cells followed by reacting at 37°C for 24 minutes. By adding 100 µl of 20% perchloric acid, the reaction was terminated. The reaction mixture was then allowed to stand on ice for an hour to extract intracellular CAMP. The amount of cAMP in the extract was measured using cAMP EIA kit (Amersham Pharmacia Biotech).

[3] = tested on: rat SENR; assay: GTPγS binding to rat SENR-expression CHO cell membrane fraction; type: biochemical; details: peptide in various concentrations, 25°C 1 hour
Procedure: The [^35S] -guanosine 5'-(γ-thio)triphosphate binding promoting activity of bovine SENR ligand (SEQ ID NO:21) on SENR-expression CHO cell membrane fraction was measured by the following method. First, preparation of membrane fraction is described. To 1 x 10^8 of CHO/SENR cells was added 10 ml of a homogenate buffer (10 mM NaHCO3, 5 mM EDTA, 0.5 mM PMSF, 1 µg/ml pepstatin, 4 µg/ml E64, 20 µg/ml leupeptin), which was homogenized by using Polytron (12,000 rpm, 1 min.). The cell homogenate was subjected to centrifugation (1,000 g, 15 mins.) to give the supernatant. Next, the supernatant was subjected to ultracentrifugation (Beckman type 30 rotor, 30,000 rpm, 1 hour). The resulting precipitate was used as a rat SENR-expression CHO cell membrane.
The GTPγS binding activity was measured as follows. The rat SENR-expression CHO cell membrane was diluted with a buffer for membrane dilution (50 mM Tris-hydrochloride buffer (pH 7.4), 5 mM MgCl2, 150 mM NaCl, 1 µM GDP) to prepare a cell membrane fraction solution for assay having a protein concentration of 30 µg/ml. […] After washing twice with 1.5 ml of a buffer for filter washing (50 mM Tris-hydrochloride buffer (pH 7.4), 5 mM MgCl2, 1 mM EDTA, 0.1% BSA), radioactivity of the filter was measured using a liquid scintillation counter.

[4] = Blood pressure of rats under anesthesia; type: in vivo, Male Wistar rats; details: 10 nmols/kg intravenous, 8 rats, average + standard error
Procedure: The activity of the synthetic SENR ligand polypeptides ① and ② (SEQ ID NO:7 and SEQ ID NO:8) in various concentrations, which were synthesized in EXAMPLES 12 and 13, on blood pressure of rats under anesthesia was measured by the following method. Male Wistar rats of 8 to 9 weeks old (purchased from Nippon Crea Co.) were anesthetized with Nembutal injection (Dai-Nippon Pharmaceutical Co., 50 mg/ml sodium pentobarbital, 50 mg/kg i.p.). A catheter (SP-55) for blood pressure measurement connected with a transducer was inserted into the left carotid artery and a catheter (SP-35) for intravenous injection into the left femoral vein. The synthetic ligand was dissolved in physiological saline containing 0.05% BSA, which was cannulated through the left femoral vein in a dose of 1, 10 or 100 nmol/kg. The blood pressure was continuously recorded by means of a polygraph (manufactured by NEC Sanei Co.). […] The hypotensive action was shown by the average blood pressure reduced by administration of SENR ligand to the average blood pressure prior to administration. […]

[5] = target: human SENR (human); assay: cell-based or functional assay

- cAMP synthesis suppressing activity (forskolin-stimulated; concentration at which an obvious reduction was seen) [1]: 0.3 nM
Substance: bovine SENR ligand (peptide)

Substance: GPPSECFWKYCV (cysteine pairing not given here) [Bovine SENR ligand, Cys 6th and 11th form intramolecular disulfide bond]
- amount of intracellular cAMP ([2]; increasing peptide concentration): decreased dose dependently
- amount of intracellular cAMP ([2]; peptide 0.3 nM, 37°C 24 minutes): obviously reduced
- amount of [^35S]-guanosine 5'-(γ-thio)triphosphate bound to the membrane fraction [3]: dose-dependently increased
- Average blood pressure decreased [4]: 35.7 ± 7.0 mmHg

- cAMP synthesis suppressing activity (forskolin-stimulated; concentration at which an obvious reduction was seen) [5]: 0.3 nM
Substance: human SENR ligand (human urotensin II) (peptide)
